The values below are quoted from earlier work in patent US20070281910A1, “Salicyl alcohol creatine phosphate prodrugs, compositions and uses thereof” (XenoPort, Inc., priority 2006, published 2007).

Like-named read-outs stand apart in the source and are kept apart here. Where only a bound is given, the exact number is not on record here.

Assay in data set [1]: not given
This is another data set of the same source.

The conditions of data set [2]: animals fed a diet containing up to 1%.

On to `CN(CC(=O)O)C(=N)NP(=O)(O)O` [Creatine phosphate, creatine phosphate], for which, under “patients with cardiac diseases, intravenous injection up to 8 gm/day”, the adverse side effects entry is listed as “without adverse side effects”.

On to `CN(CC(=O)O)C(=N)N.O` [creatine monohydrate], for which, for the setting “athletes and body builders, 2-3 gm/day”, the adverse side effects entry was “without adverse side effects”.

Turning to `CN(CC(=O)O)C(=N)N` [creatine], the “overall increase of creatine phosphate levels” value in data set [1] (creatine supplementation over weeks) is reported as under 50%. Besides, the “duration of increase in tissue creatine phosphate levels” value in data set [1] (following oral creatine supplementation) is recorded as over 14 days. For the same molecule, the “increase of cerebral creatine phosphate” value in data set [1] (healthy volunteers, oral creatine administration) is “about 10%”.

For the molecule `NC1=NCCN1CC(=O)O` [cyclocreatine], the adverse effects result in data set [2] was “do not exhibit adverse effects”.
